Laboratory results published in ChEMBL document CHEMBL5137047, “Design, synthesis and anti-inflammatory evaluation of aloe-emodin derivatives as potential modulators of Akt, NF-κB and JNK signaling pathways” (Eur J Med Chem, 2022).
Activity calls are given as the source filed them. The calls are words filed in the database; no cut-off is given here.

What was measured:
[1] = test system: RAW264.7; experiment: Antiinflammatory activity against mouse RAW264.7 cells assessed as inhibition of LPS-induced nitric oxide production at 5 uM measured after 24 hrs; format: functional, cell-based
[2] = test system: RAW264.7; experiment: Inhibition of LPS-induced NF-kappaB activation in mouse RAW264.7 cells assessed as reduction in p65 expression in nucleus at 3.125 to 12.5 uM preincubated for 24 hrs followed by LPS addition and measured after 30 mins by Western blot analysis; format: cell-based; conditions: dose 3.125-12.5 µM
[3] = test system: RAW264.7; experiment: Inhibition of LPS-induced NF-kappaB activation in mouse RAW264.7 cells assessed as upregulation of IkappaBalpha protein expression at 3.125 to 12.5 uM preincubated for 24 hrs followed by LPS addition and measured after 30 mins by Western blot analysis; format: cell-based; conditions: dose 3.125-12.5 µM, time 24.5 hrs
[4] = test system: RAW264.7; experiment: Inhibition of IL-1beta mRNA expression in LPS-stimulated mouse RAW264.7 cells measured after 24 hrs by qRT-PCR analysis; format: functional, cell-based; conditions: dose 3.125-12.5 µM, DDE = dose-dependent effect
[5] = test system: RAW264.7; experiment: Inhibition of TNF-alpha production in LPS-stimulated mouse RAW264.7 cells measured after 24 hrs by ELISA; format: functional, cell-based; conditions: dose 3.125-12.5 µM, DDE = dose-dependent effect
[6] = test system: RAW264.7; experiment: Inhibition of IL-6 production in LPS-stimulated mouse RAW264.7 cells measured after 24 hrs by ELISA; format: functional, cell-based; conditions: dose 3.125-12.5 µM, DDE = dose-dependent effect
[7] = test system: RAW264.7; experiment: Inhibition of LPS-induced NF-kappaB activation in mouse RAW264.7 cells assessed as reduction in translocation of p65 from cytoplasm to nucleus at 3.125 to 12.5 uM preincubated for 24 hrs followed by LPS addition and measured after 30 mins by immunofluorescence analysis; format: cell-based; conditions: dose 3.125-12.5 µM
[8] = biological target: c-Jun N-terminal kinase (Mus musculus) (UniProt Q91Y86+Q9WTU6+Q61831); experiment: Inhibition of JNK phosphorylation in LPS-induced mouse RAW264.7 cells measured after 24 hrs by Western blot analysis; format: cell-based; conditions: dose 3.125-12.5 µM, DDE = dose-dependent effect
[9] = test system: RAW264.7; experiment: Inhibition of IL-6 mRNA expression in LPS-stimulated mouse RAW264.7 cells measured after 24 hrs by qRT-PCR analysis; format: functional, cell-based; conditions: dose 3.125-12.5 µM, DDE = dose-dependent effect
[10] = test system: RAW264.7; experiment: Inhibition of Akt phosphorylation in LPS-stimulated mouse RAW264.7 cells at 3.125 to 12.5 uM measured after 24 hrs by Western blot analysis; format: cell-based; conditions: dose 3.125-12.5 µM
[11] = test system: RAW264.7; experiment: Cytotoxicity against mouse RAW264.7 cells assessed as reduction in cell viability at upto 25 uM measured after 24 hrs by MTT assay; format: toxicity, cell-based; conditions: raw264.7, 24 h
[12] = test system: RAW264.7; experiment: Inhibition of COX-2 mRNA expression in LPS-stimulated mouse RAW264.7 cells measured after 24 hrs by qRT-PCR analysis; format: functional, cell-based; conditions: dose 3.125-12.5 µM, DDE = dose-dependent effect
[13] = test system: RAW264.7; experiment: Antiinflammatory activity against mouse RAW264.7 cells assessed as inhibition of LPS-induced nitric oxide production measured after 24 hrs; format: functional, cell-based; conditions: RAW264.7, 24 h
[14] = test system: RAW264.7; experiment: Inhibition of IL-1beta production in LPS-stimulated mouse RAW264.7 cells measured after 24 hrs by ELISA; format: functional, cell-based; conditions: dose 3.125-12.5 µM, DDE = dose-dependent effect
[15] = test system: RAW264.7; experiment: Downregulation of iNOS protein expression in LPS-stimulated mouse RAW264.7 cells measured after 24 hrs by Western blot analysis; format: functional, cell-based; conditions: dose 3.125-12.5 µM
[16] = test system: RAW264.7; experiment: Downregulation of COX-2 protein expression in LPS-stimulated mouse RAW264.7 cells measured after 24 hrs by Western blot analysis; format: functional, cell-based; conditions: dose 3.125-12.5 µM
[17] = test system: RAW264.7; experiment: Inhibition of PGE2 production in LPS-stimulated mouse RAW264.7 cells measured after 24 hrs by ELISA; format: functional, cell-based; conditions: dose 3.125-12.5 µM, DDE = dose-dependent effect

c-Jun N-terminal kinase (Mus musculus), sequence (Q61831 whole entry, looked up): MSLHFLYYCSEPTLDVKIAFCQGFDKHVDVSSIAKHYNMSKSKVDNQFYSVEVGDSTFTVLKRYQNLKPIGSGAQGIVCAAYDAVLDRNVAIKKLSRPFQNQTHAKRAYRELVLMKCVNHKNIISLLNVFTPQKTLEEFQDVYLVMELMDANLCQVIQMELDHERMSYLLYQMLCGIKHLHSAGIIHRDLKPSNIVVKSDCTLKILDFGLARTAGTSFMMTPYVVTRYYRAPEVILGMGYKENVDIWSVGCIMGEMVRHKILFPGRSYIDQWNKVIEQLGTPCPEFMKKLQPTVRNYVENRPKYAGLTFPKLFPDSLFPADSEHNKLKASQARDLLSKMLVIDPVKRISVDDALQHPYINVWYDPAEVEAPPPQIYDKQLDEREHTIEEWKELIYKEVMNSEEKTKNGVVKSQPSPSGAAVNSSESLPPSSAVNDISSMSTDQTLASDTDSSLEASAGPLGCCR
c-Jun N-terminal kinase (Mus musculus), sequence (Q91Y86 whole entry, looked up): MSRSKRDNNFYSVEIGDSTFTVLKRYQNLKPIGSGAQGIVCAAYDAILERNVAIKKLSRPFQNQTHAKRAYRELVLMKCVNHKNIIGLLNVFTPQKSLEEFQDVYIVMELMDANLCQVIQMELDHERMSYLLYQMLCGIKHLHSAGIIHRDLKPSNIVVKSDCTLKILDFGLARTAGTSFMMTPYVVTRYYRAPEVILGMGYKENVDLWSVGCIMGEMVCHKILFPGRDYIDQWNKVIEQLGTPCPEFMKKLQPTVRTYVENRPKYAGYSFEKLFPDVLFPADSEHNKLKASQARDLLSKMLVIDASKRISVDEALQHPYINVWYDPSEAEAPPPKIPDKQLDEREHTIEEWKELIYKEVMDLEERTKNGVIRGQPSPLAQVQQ
c-Jun N-terminal kinase (Mus musculus), sequence (Q9WTU6 whole entry, looked up): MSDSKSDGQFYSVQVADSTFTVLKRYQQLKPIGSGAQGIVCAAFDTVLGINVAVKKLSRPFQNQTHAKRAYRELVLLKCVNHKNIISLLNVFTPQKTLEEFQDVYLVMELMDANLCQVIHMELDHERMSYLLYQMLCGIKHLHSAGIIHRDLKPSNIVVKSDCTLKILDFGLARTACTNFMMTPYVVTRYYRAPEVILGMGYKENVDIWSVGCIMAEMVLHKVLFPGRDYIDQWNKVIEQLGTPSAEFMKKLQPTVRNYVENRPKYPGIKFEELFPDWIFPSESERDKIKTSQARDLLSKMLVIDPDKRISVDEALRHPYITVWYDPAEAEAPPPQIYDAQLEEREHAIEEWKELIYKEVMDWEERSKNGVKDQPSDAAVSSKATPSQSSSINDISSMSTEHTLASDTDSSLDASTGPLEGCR

Structure (SMILES)	NO production inhibition (active/inactive call) [1]	also measured
CC(=O)Oc1cccc2c1C(=O)c1c(OC(C)=O)cc(COC(=O)CN3CCC(OC(C)=O)CC3)cc1C2=O	Active	
CN1CCN(CC(=O)OCc2cc(O)c3c(c2)C(=O)c2cccc(O)c2C3=O)CC1		inhibition [2]: Active; inhibition [3]: Active; inhibition [4]: Dde; inhibition [5]: Dde; inhibition [6]: Dde; inhibition [7]: Active; inhibition [8]: Dde; inhibition [9]: Dde; inhibition [10]: Active; Activity [11]: Non-Toxic; inhibition [12]: Dde; IC50 [13]: 3.15 µM; inhibition [14]: Dde; Activity [15]: Active; Activity [16]: Active; inhibition [17]: Dde
O=C(CN1CCN(c2ccccc2)CC1)OCc1cc(O)c2c(c1)C(=O)c1cccc(O)c1C2=O	Active	
CC(=O)Oc1cccc2c1C(=O)c1c(OC(C)=O)cc(COC(=O)CN3CCN(c4ccccc4)CC3)cc1C2=O	Active	
O=C(CN1CCOCC1)OCc1cc(O)c2c(c1)C(=O)c1cccc(O)c1C2=O	Active	
CC(C)C(=O)Oc1cccc2c1C(=O)c1c(OC(=O)C(C)C)cc(COC(=O)CN3CCOCC3)cc1C2=O	Active	
CC(=O)Oc1cccc2c1C(=O)c1c(OC(C)=O)cc(COC(=O)CN3CCN(c4ccc(F)cc4)CC3)cc1C2=O	Active	
O=C(CN1CCOCC1)OCc1cc(OC(=O)c2ccccc2)c2c(c1)C(=O)c1cccc(OC(=O)c3ccccc3)c1C2=O	Active	
CC(=O)Oc1cccc2c1C(=O)c1c(OC(C)=O)cc(COC(=O)CN3CCSCC3)cc1C2=O	Active	
CC(=O)Oc1cccc2c1C(=O)c1c(OC(C)=O)cc(COC(=O)CN3CCOCC3)cc1C2=O	Active	
CC(=O)Oc1cccc2c1C(=O)c1c(OC(C)=O)cc(COC(=O)CN3CCCCC3)cc1C2=O	Active	
CCCN(C)CC(=O)OCc1cc(O)c2c(c1)C(=O)c1cccc(O)c1C2=O	Active	
O=C(CN1CCSCC1)OCc1cc(O)c2c(c1)C(=O)c1cccc(O)c1C2=O	Active	
CCN(CC)CC(=O)OCc1cc(O)c2c(c1)C(=O)c1cccc(O)c1C2=O	Active	
O=C(CN1CCN(c2ccc(F)cc2)CC1)OCc1cc(O)c2c(c1)C(=O)c1cccc(O)c1C2=O	Active	
CC(C)N(C)CC(=O)OCc1cc(O)c2c(c1)C(=O)c1cccc(O)c1C2=O	Active	
O=C(CN1CCCC1)OCc1cc(O)c2c(c1)C(=O)c1cccc(O)c1C2=O	Active	
O=C(CN1CCC(O)CC1)OCc1cc(O)c2c(c1)C(=O)c1cccc(O)c1C2=O	Active	
O=C(CN1CCCCC1)OCc1cc(O)c2c(c1)C(=O)c1cccc(O)c1C2=O	Active	
